What was measured:
[1] = test system: FB1_39t3 (DNA, aptamer) ATACCAGCTTATTCAATTAATCGCATTACCTTATACCAGCTTATTCAATTACGTCTGCACATACCAGCTTATTCAATT; test: microscale thermophoresis; details: 100 mM NaCl, 2 mM MgCl2, 5 mM KCl, 1 mM CaCl2; 20 mM Tris, pH 7.6, 25 °C; 5 nM aptamer
[2] = test system: FB1_10 (DNA, aptamer) AGCAGCACAGAGGTCAGATGCGATCTGGATATTATTTTTGATACCCCTTTGGGGAGACATCCTATGCGTGCTACCGTGAA; test: magnetic beads assay, fluorescence; details: 100 mM NaCl, 2 mM MgCl2, 5 mM KCl, 1 mM CaCl2; immobilised compound; 20 mM Tris-HCl, 0.02% Tween 20, pH 7.4, room temperature; aptamer up to 2000 nM
[3] = test system: FB1_10 (DNA, aptamer) AGCAGCACAGAGGTCAGATGCGATCTGGATATTATTTTTGATACCCCTTTGGGGAGACATCCTATGCGTGCTACCGTGAA; test: microscale thermophoresis; details: 100 mM NaCl, 2 mM MgCl2, 5 mM KCl, 1 mM CaCl2; 20 mM Tris-HCl, 0.02% Tween 20, pH 7.4, 25 °C; 5 nM aptamer
[4] = test system: FB1_39 (DNA, aptamer) ATACCAGCTTATTCAATTAATCGCATTACCTTATACCAGCTTATTCAATTACGTCTGCACATACCAGCTTATTCAATTAGATAGTAAGTGCAATCT; test: magnetic beads assay, fluorescence; details: 100 mM NaCl, 2 mM MgCl2, 5 mM KCl, 1 mM CaCl2; immobilised compound; 20 mM Tris, pH 7.6, room temperature; aptamer 0.5-100 nM
[5] = test system: FB1_39t3 (DNA, aptamer) ATACCAGCTTATTCAATTAATCGCATTACCTTATACCAGCTTATTCAATTACGTCTGCACATACCAGCTTATTCAATT; test: magnetic beads assay, fluorescence; details: 100 mM NaCl, 2 mM MgCl2, 5 mM KCl, 1 mM CaCl2; immobilised compound; 20 mM Tris, pH 7.6, room temperature; aptamer up to 2000 nM
[6] = test system: FB1_39 (DNA, aptamer) ATACCAGCTTATTCAATTAATCGCATTACCTTATACCAGCTTATTCAATTACGTCTGCACATACCAGCTTATTCAATTAGATAGTAAGTGCAATCT; test: microscale thermophoresis; details: 100 mM NaCl, 2 mM MgCl2, 5 mM KCl, 1 mM CaCl2; 20 mM Tris, pH 7.6, 25 °C; 5 nM aptamer

## CCCC[C@@H](C)[C@@H](OC(=O)C[C@@H](CC(=O)O)C(=O)O)[C@H](C[C@@H](C)C[C@H](O)CCCC[C@@H](O)C[C@H](O)[C@H](C)N)OC(=O)C[C@@H](CC(=O)O)C(=O)O
[1]
  KD: 2200 ± 1100 nmol/L
[2]
  binding: no
[3]
  KD: 162 ± 137 nmol/L
[4]
  KD: 1.53 ± 0.67 nmol/L
[5]
  binding: no
[6]
  KD: 31 ± 22 nmol/L

Source: PMC7764985 (2020)
